Experimental data as given in paper PMC6467700 (Journal of medicinal chemistry, 2019).
Where two headings read alike, the source gives them in different places.

Columns and labels:
MOR [1] = molecular target: T1, MOR (Mus musculus, UniProt P42866); experiment: Competition radioligand binding at the MOR; conditions: [3H]naloxone, CHO cells expressing mouse MOR
MOR [2] = molecular target: T1, MOR; conditions: cited from earlier work
MOR [3] = conditions: peripherally selective MOR antagonist; cited from earlier work
KOR [4] = molecular target: T2, KOR (Mus musculus, UniProt P33534); conditions: read-out: Ki,κ; 50a; cited from earlier work
T2 sequence (P33534 whole entry): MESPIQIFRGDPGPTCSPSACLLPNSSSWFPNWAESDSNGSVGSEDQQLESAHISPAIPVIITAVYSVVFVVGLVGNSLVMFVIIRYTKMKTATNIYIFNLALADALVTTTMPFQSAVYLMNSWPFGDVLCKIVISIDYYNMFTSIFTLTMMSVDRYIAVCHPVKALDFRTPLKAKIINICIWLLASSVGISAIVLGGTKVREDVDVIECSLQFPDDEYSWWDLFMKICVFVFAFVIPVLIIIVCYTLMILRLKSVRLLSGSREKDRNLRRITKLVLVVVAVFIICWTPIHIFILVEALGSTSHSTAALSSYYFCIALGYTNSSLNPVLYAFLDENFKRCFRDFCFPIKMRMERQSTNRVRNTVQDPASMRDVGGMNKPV

MOR [5] = molecular target: T1, MOR; conditions: read-out: Ki (nM) MOR; ref 57a; cited from earlier work
DOR = DOR (Mus musculus, UniProt P32300); conditions: ref 57a, cited from earlier work
DOR, sequence (P32300 whole entry): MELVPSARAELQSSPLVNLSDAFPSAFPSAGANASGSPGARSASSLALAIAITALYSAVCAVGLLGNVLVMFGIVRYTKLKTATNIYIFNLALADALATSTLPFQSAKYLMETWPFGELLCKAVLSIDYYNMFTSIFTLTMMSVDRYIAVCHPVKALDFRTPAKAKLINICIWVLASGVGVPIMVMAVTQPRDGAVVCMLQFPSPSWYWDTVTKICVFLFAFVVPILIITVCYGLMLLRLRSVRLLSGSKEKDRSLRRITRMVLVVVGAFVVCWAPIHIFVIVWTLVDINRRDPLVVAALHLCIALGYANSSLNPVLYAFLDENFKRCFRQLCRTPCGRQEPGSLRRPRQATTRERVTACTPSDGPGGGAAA

KOR [6] = molecular target: T2, KOR; conditions: ref 57a, cited from earlier work

T1 sequence (P42866 whole entry): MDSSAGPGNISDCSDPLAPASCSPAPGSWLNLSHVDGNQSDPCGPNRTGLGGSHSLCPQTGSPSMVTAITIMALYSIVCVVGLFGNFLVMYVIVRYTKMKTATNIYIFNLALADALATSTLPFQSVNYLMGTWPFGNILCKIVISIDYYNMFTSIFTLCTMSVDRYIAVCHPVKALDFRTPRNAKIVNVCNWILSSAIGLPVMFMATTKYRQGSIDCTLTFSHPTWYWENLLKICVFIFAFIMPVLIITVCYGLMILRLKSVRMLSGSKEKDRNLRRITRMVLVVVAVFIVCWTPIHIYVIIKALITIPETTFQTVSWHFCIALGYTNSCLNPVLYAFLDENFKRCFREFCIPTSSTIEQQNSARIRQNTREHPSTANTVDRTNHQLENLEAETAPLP

## COC(=O)c1cnccc1C(=O)N[C@@H]1CC[C@@]2(O)[C@H]3Cc4ccc(O)c5c4[C@@]2(CCN3CC2CC2)[C@H]1O5 [Compound 6, 17-Cyclopropylmethyl-3,14β-dihydroxy-4,5α-epoxy-6β-[(3′-methylformate-4′-pyridyl)acetamido]morphinan]
MOR [1]
  Ki (nM) MOR: nanomolar binding affinity

## O=C(N[C@@H]1CC[C@@]2(O)[C@H]3Cc4ccc(O)c5c4[C@@]2(CCN3CC2CC2)[C@H]1O5)c1ccncc1 [NAP, 17-cyclopropylmethyl-3,14β-dihydroxy-4,5α-epoxy-6β-(4′-pyridylcarboxamido)-morphinan]
MOR [2]; ref 44a
  MOR [35S]GTPγS Binding % Emax of DAMGO: 22.72 ± 0.84%
MOR [3]
  ED50: 8.8 µg/kg

## Oc1ccc2c3c1O[C@H]1c4[nH]c5c(c4C[C@@]4(O)[C@@H](C2)N(CC2CC2)CC[C@]314)C[C@@]1(O)[C@H]2Cc3ccc(O)c4c3[C@@]1(CCN2CC1CC1)[C@H]5O4 [norBNI]
KOR [4]
  Ki: 1.8 nM

## Cc1cnccc1C(=O)N[C@@H]1CC[C@@]2(O)[C@H]3Cc4ccc(O)c5c4[C@@]2(CCN3CC2CC2)[C@H]1O5 [NMP, 17-cyclopropylmethyl-3,14β-dihydroxy-4,5α-epoxy-6β-{[4′-(3′-methylpyridyl)]carboxamido}morphinan]
MOR [5]
  Ki: 0.58 ± 0.25 nM
DOR; read-out: Ki (nM) DOR
  Ki: 273.6 ± 1.8 nM
DOR
  Selectivity δ/μ: 470
KOR [6]; read-out: Ki (nM) KOR
  Ki: 96.7 ± 12.2 nM
KOR [6]
  Selectivity κ/μ: 166
MOR [2]; read-out: MOR [35S]GTPγS Binding EC50, ref 57a
  EC50: 1.52 ± 0.26 nM
MOR [2]; ref 57a
  MOR [35S]GTPγS Binding % Emax of DAMGO: 30.63 ± 0.55%
